EP0595743B1, “Bihaptinic derivatives for binding technetium or rhenium, process for their preparation, application for diagnosis and therapy, kits and immunological reactants comprising them” (priority 1992, dated 2001)

Legend:
[1] = system: tumeurs colorectales humaines (LS174); details: 2 µg conjugate F6-679.1MC7 24 h earlier, 6,7 µCi (1 pmol)
Procedure: (§1) La liaison du dérivé de l'exemple 3 aux cellules hépatiques s'effectue par l'intermédiaire de sa liaison au site Ac de l'anticorps 679.1MC7, lui même lié par son fragment F(c) à ces cellules. Des souris ayant reçu 2µg d'anticorps 679.1MC7 24 heures plus tôt sont injectées par voie intraveineuse avec 100 µCi (15 pmol) de dérivé de l'exemple 3. Les images sont réalisées avec une caméra Sopha Medical Gammatome 2 équipée avec un collimateur haute résolution de moyenne énergie, puis les animaux sont sacrifiés et la radioactivité présente dans le foie est déterminée à l'aide d'un compteur gamma. […] 100 µCi de dérivé de l'exemple 3 sont injectés à une souris ayant reçu quelques minutes plus tôt 1µg de conjugué anticorps CY34-679.1MC7 (anti-lyb8.2-anti-Histamine-Succinyl-Glycine). Les images sont enregistrées comme indiqué dans l'exemple précédent. […] Des cellules de tumeurs colorectales humaines (cellules LS 174, 3.10^6) sont injectées par voie sous cutanée à des souris nudes. […] Les souris reçoivent alors 2µg de conjugué anticorps F6-679.1MC7 (antiCEA-anti-Histamine-Succinyl-Glycine). Vingt quatre heures plus tard les souris reçoivent 6,7µCi (1pmol) de dérivé de l'exemple 3. Six heures plus tard les images sont enregistrées comme indiqué dans l'exemple précédent puis les animaux sacrifiés.

[2] = system: cellules hépatiques; details: 2 µg antibody 679.1MC7 24 h earlier; 100 µCi (15 pmol) i.v.; 4 h after injection
Procedure: as §1

[3] = system: lymphocytes de souris BALB/c qui expriment l'antigène Lyb 8.2; details: 1 µg conjugate CY34-679.1MC7 a few minutes earlier; 100 µCi; 4 h after injection
Procedure: as §1

[4] = system: cellules LS-174 T; details: LS-174 T cells 7.10^6/ml, 4 °C, 2 h; nanomolar concentrations of bispecific antibody (anti-CEA/anti-histamine-succinyl-glycine); maximum binding
Procedure: Des cellules LS-174 T (7.10^6 cellules/ml), cellules d'origine humaine connues pour exprimer à leur surface l'antigène carcino-embryonnaire, sont incubées à 4° C pendant 2 heures dans des tubes contenant un tampon phosphate isotonique à pH 7,3. Dans ces tubes, ont été ajoutés à des concentrations variables le conjugué bispécifique approprié (anti-antigène carcino-embryonnaire/anti-histamine-succinyl-glycine), marqué à l'iode-125 suivant une des techniques bien connues et la sonde, marquée au ^99mTc comme décrit ci-dessus. Ces concentrations sont calculées pour couvrir un domaine s'étendant de concentrations très inférieures à très supérieures à la concentration de l'antigène cible dans le mélange. A la fin de cette incubation, 100 µl de mélange sont transférés en triplicates dans des tubes contenant un mélange de phthalates. Les tubes sont centrifugés 30 secondes à environ 5000 g. Les cellules, plus denses que les phthalates, forment un culot alors que le surnageant reste à la surface. On peut alors compter séparément les activités (^125I et ^99mTc) liées aux cellules et les activités non liées et en calculer les rapports.

**Q.** Which results are given for “^99mTc mercaptoacétyl-Glycyl-Glycyl-Glycyl-N-ε-(Histamine-Succinyl-Glycine)-Lysyl-D-Tyrosyl-N-ε-(Histamine-Succinyl-Glycine)-Lysinamide [Exemple 3]”?
**A.** visibilité des tumeurs [1]: visibles dès trois heures après l'injection; localisation de la radioactivité ([1]; 6 h after injection): 9,8 ± 3,7 % / g de tumeur; rapport de marquage tumeur/plasma ([1]; 6 h after injection): 2.0 + 0.5; % de la dose injectée localisée dans le foie [2]: 54 ± 6 % de la dose injectée; scintigraphie du foie [2]: apparent en scintigraphie; % de la dose injectée localisée dans la rate [3]: 43 ± 3 % de la dose injectée; scintigraphie de la rate [3]: apparente en scintigraphie; pourcentage de sonde lié par rapport à sa quantité totale [4]: ~70%
